Experimental data taken from PMC10949855 (Journal of veterinary pharmacology and therapeutics, 2022).

Test system: healthy dogs
Test: Sedation score
Format: in vivo, dogs (Beagles)
[1] = IV inhibitors, 0.4 mg/kg IV after CYP inhibitors, 0.5 hr
[2] = IV inhibitors, 0.4 mg/kg IV after CYP inhibitors, 1 hr
[3] = IV inhibitors, 0.4 mg/kg IV after CYP inhibitors, 1.5 hr
[4] = IV inhibitors, 0.4 mg/kg IV after CYP inhibitors, 2 hr
[5] = IV inhibitors, 0.4 mg/kg IV after CYP inhibitors, 3 hr
[6] = IV inhibitors, 0.4 mg/kg IV after CYP inhibitors, 4 hr
[7] = IV inhibitors, 0.4 mg/kg IV after CYP inhibitors, 5 hr
[8] = IV inhibitors, 0.4 mg/kg IV after CYP inhibitors, 6 hr
[9] = IV inhibitors, 0.4 mg/kg IV after CYP inhibitors, 7 hr
[10] = IV inhibitors, 0.4 mg/kg IV after CYP inhibitors, 8 hr
[11] = IV inhibitors, 0.4 mg/kg IV after CYP inhibitors, 9 hr
[12] = IV inhibitors, 0.4 mg/kg IV after CYP inhibitors, 10 hr
[13] = IV inhibitors, 0.4 mg/kg IV after CYP inhibitors, 11 hr
[14] = IV inhibitors, 0.4 mg/kg IV after CYP inhibitors, 12 hr
[15] = IV inhibitors, 0.4 mg/kg IV after CYP inhibitors, 24 hr

## Oc1ccc2c(c1)[C@@]13CCCC[C@@]1(O)[C@@H](C2)N(CC1CCC1)CC3 [butorphanol]
[1]
  number of dogs with sedation score 0: 0
  number of dogs with sedation score 1: 6
  number of dogs with sedation score 2: 0
  number of dogs with sedation score 3: 0
[2]
  number of dogs with sedation score 0: 0
  number of dogs with sedation score 1: 6
  number of dogs with sedation score 2: 0
  number of dogs with sedation score 3: 0
[3]
  number of dogs with sedation score 0: 0
  number of dogs with sedation score 1: 6
  number of dogs with sedation score 2: 0
  number of dogs with sedation score 3: 0
[4]
  number of dogs with sedation score 0: 0
  number of dogs with sedation score 1: 4
  number of dogs with sedation score 2: 2
  number of dogs with sedation score 3: 0
[5]
  number of dogs with sedation score 0: 0
  number of dogs with sedation score 1: 5
  number of dogs with sedation score 2: 1
  number of dogs with sedation score 3: 0
[6]
  number of dogs with sedation score 0: 3
  number of dogs with sedation score 1: 3
  number of dogs with sedation score 2: 0
  number of dogs with sedation score 3: 0
[7]
  number of dogs with sedation score 0: 6
  number of dogs with sedation score 1: 0
  number of dogs with sedation score 2: 0
  number of dogs with sedation score 3: 0
[8]
  number of dogs with sedation score 0: 6
  number of dogs with sedation score 1: 0
  number of dogs with sedation score 2: 0
  number of dogs with sedation score 3: 0
[9]
  number of dogs with sedation score 0: 6
  number of dogs with sedation score 1: 0
  number of dogs with sedation score 2: 0
  number of dogs with sedation score 3: 0
[10]
  number of dogs with sedation score 0: 6
  number of dogs with sedation score 1: 0
  number of dogs with sedation score 2: 0
  number of dogs with sedation score 3: 0
[11]
  number of dogs with sedation score 0: 6
  number of dogs with sedation score 1: 0
  number of dogs with sedation score 2: 0
  number of dogs with sedation score 3: 0
[12]
  number of dogs with sedation score 0: 6
  number of dogs with sedation score 1: 0
  number of dogs with sedation score 2: 0
  number of dogs with sedation score 3: 0
[13]
  number of dogs with sedation score 0: 6
  number of dogs with sedation score 1: 0
  number of dogs with sedation score 2: 0
  number of dogs with sedation score 3: 0
[14]
  number of dogs with sedation score 0: 6
  number of dogs with sedation score 1: 0
  number of dogs with sedation score 2: 0
  number of dogs with sedation score 3: 0
[15]
  number of dogs with sedation score 0: 6
  number of dogs with sedation score 1: 0
  number of dogs with sedation score 2: 0
  number of dogs with sedation score 3: 0
SC 0.4 mg/kg
  time with moderate sedation or greater in at least 1 dog: 1.5 to 2 h
SC 0.4 mg/kg, 0.5 hr
  number of dogs with sedation score 0: 0
  number of dogs with sedation score 1: 6
  number of dogs with sedation score 2: 0
  number of dogs with sedation score 3: 0
SC 0.4 mg/kg, 1 hr
  number of dogs with sedation score 0: 0
  number of dogs with sedation score 1: 6
  number of dogs with sedation score 2: 0
  number of dogs with sedation score 3: 0
SC 0.4 mg/kg, 1.5 hr
  number of dogs with sedation score 0: 0
  number of dogs with sedation score 1: 5
  number of dogs with sedation score 2: 1
  number of dogs with sedation score 3: 0
SC 0.4 mg/kg, 2 hr
  number of dogs with sedation score 0: 0
  number of dogs with sedation score 1: 5
  number of dogs with sedation score 2: 1
  number of dogs with sedation score 3: 0
SC 0.4 mg/kg, 3 hr
  number of dogs with sedation score 0: 1
  number of dogs with sedation score 1: 5
  number of dogs with sedation score 2: 0
  number of dogs with sedation score 3: 0
SC 0.4 mg/kg, 4 hr
  number of dogs with sedation score 0: 2
  number of dogs with sedation score 1: 4
  number of dogs with sedation score 2: 0
  number of dogs with sedation score 3: 0
SC 0.4 mg/kg, 5 hr
  number of dogs with sedation score 0: 2
  number of dogs with sedation score 1: 4
  number of dogs with sedation score 2: 0
  number of dogs with sedation score 3: 0
SC 0.4 mg/kg, 6 hr
  number of dogs with sedation score 0: 4
  number of dogs with sedation score 1: 2
  number of dogs with sedation score 2: 0
  number of dogs with sedation score 3: 0
SC 0.4 mg/kg, 7 hr
  number of dogs with sedation score 0: 6
  number of dogs with sedation score 1: 0
  number of dogs with sedation score 2: 0
  number of dogs with sedation score 3: 0
SC 0.4 mg/kg, 8 hr
  number of dogs with sedation score 0: 6
  number of dogs with sedation score 1: 0
  number of dogs with sedation score 2: 0
  number of dogs with sedation score 3: 0
SC 0.4 mg/kg, 9 hr
  number of dogs with sedation score 0: 6
  number of dogs with sedation score 1: 0
  number of dogs with sedation score 2: 0
  number of dogs with sedation score 3: 0
SC 0.4 mg/kg, 10 hr
  number of dogs with sedation score 0: 6
  number of dogs with sedation score 1: 0
  number of dogs with sedation score 2: 0
  number of dogs with sedation score 3: 0
SC 0.4 mg/kg, 11 hr
  number of dogs with sedation score 0: 6
  number of dogs with sedation score 1: 0
  number of dogs with sedation score 2: 0
  number of dogs with sedation score 3: 0
SC 0.4 mg/kg, 12 hr
  number of dogs with sedation score 0: 6
  number of dogs with sedation score 1: 0
  number of dogs with sedation score 2: 0
  number of dogs with sedation score 3: 0
SC 0.4 mg/kg, 24 hr
  number of dogs with sedation score 0: 6
  number of dogs with sedation score 1: 0
  number of dogs with sedation score 2: 0
  number of dogs with sedation score 3: 0
